# Source: patent US6861416B2, “Oxazinones and methods for their use and synthesis” (Chirologix Pharmaceuticals, Inc., priority 2001, dated 2005)
# What was measured:
# [1] = system: Micrococcus luteus; assay: Filter disc bioassay on agar plates seeded with Micrococcus luteus; format: cell-based; details: for Zone Size: agar plate
# Method: Samples of 2-carboxymethyl-5-hydroxy-1,2-oxazin-3-one and penicillin were applied to a filter disc in the amounts indicated in Table 1, below. The discs were applied to agar plates seeded with Micrococcus luteus, and the plates were incubated over night at 37° C.
# Samples of 2-[2-carboxypropyl]-5-hydroxy-1,2-oxazin-3-one and desacetoxycephalosporin G were applied to a filter disc in the amounts indicated in Table 2, below. The discs were applied to agar plates seeded with Micrococcus luteus, and the plates were incubated overnight at 37° C.
smiles,measurement,setting,value
"CC(CN1OC=C(O)CC1=O)C(=O)O (stereo not drawn) [2-[2-carboxypropyl]-5-hydroxy-1,2-oxazin-3-one]",Zone Size,"[1]; 12.0 micrograms on filter disc, incubated overnight at 37° C.",2.0 cm
same,"antibacterial activity, times the activity of 2-carboxymethyl-5-hydroxy-1,2-oxazin-3-one","[1]; relative to 2-carboxymethyl-5-hydroxy-1,2-oxazin-3-one, from Tables 1 and 2",approximately 50 times
"O=C(O)CN1OC=C(O)CC1=O [2-carboxymethyl-5-hydroxy-1,2-oxazin-3-one]",Zone Size,"[1]; 100 micrograms on filter disc, incubated over night at 37° C.",1.1 cm
same,Zone Size,"[1]; 1000 micrograms on filter disc, incubated over night at 37° C.",2.0 cm
same,antibacterial activity (in words),[1]; judged from Tables 1 and 2,weak antibacterial activity
same,"antibacterial activity, times less than that of penicillin","[1]; relative to penicillin, from Tables 1 and 2",at least 1000 times
"C[C@H](C(=O)OC(C)(C)C)N1OC[C@@H](O)[C@@H](O)C1=O [8b, (αR,4R,5R)-2-(α-tert-Butoxycarbonylethyl)-4,5-dihydroxy-1,2-oxazinan-3-one]",melting point,,93 to 94 °C
"CC1(C)S[C@@H]2[C@H](NC(=O)Cc3ccccc3)C(=O)N2[C@H]1C(=O)O [Penicillin G, reference compound]",Zone Size,"[1]; 0.1 micrograms on filter disc, incubated over night at 37° C.",1.6 cm
"CC1=C(C(=O)O)N2C(=O)[C@@H](NC(=O)Cc3ccccc3)[C@H]2SC1 [desacetoxycephalosporin G, reference compound]",Zone Size,"[1]; 2.5 micrograms on filter disc, incubated overnight at 37° C.",2.5 cm
